Molecular target: Metabotropic glutamate receptor
Assay: Compound was tested for ability to stimulate metabotropic glutamate receptor (mGluR) mediated phosphoinositide hydrolysis in rat hippocampus
Format: functional, tissue-based

EC50 [µM] | Structure (SMILES)
10.9 | N[C@H](C(=O)O)c1cc(O)cc(O)c1
106 | N[C@@H](C(=O)O)c1cc(O)cc(O)c1
